Results reported in patent US20250206730A1 (AUTOTELIC BIO INC., priority 2022, published 2025).

How the values were obtained:
ALK5 kinase = biological target: T1, ALK5 kinase (Homo sapiens, UniProt P36897); experiment: LanthaScreen Eu Kinase Binding Assay; conditions: Kinase Tracer 178, Eu-anti-GST Antibody, read-out: IC50 Enzyme
T1 sequence (P36897 34-503): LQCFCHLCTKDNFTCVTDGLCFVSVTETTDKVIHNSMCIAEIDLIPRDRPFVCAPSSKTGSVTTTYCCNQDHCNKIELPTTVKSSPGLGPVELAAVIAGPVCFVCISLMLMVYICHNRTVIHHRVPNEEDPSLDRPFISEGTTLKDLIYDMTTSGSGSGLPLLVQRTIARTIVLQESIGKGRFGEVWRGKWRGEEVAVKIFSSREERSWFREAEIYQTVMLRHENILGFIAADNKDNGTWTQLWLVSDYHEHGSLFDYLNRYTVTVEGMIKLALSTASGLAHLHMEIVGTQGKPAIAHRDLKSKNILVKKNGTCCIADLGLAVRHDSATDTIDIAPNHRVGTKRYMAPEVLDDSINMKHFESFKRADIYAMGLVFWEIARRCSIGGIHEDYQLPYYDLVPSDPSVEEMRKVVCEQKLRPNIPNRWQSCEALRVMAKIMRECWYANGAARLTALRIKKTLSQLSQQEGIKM
Method: [Example 1] LanthaScreen Eu Kinase Binding Assay
4 μL of 4× Test Compound in 4% DMSO and 4 μL of 4× Kinase in Kinase buffer were added to wells (low volume, white 384-well plate (Greiner Cat. #784207)). The plate was shaken for 30 seconds, centrifuged for 10 seconds at 1000 rpm, and incubated at RT for 30 minutes. Then, 4 μL of 4× Eu-anti-GST Antibody and 4 μL of 4× Kinase Tracer 178 were added to the wells. The plate was shaken for 30 seconds, centrifuged for 10 seconds at 1000 rpm, and incubated at RT for 60 minutes. Fluorescence was measured by a plate reader, Biotek Synergy H1 (Vermont, USA) under the following conditions. • Excitation: 340 nm (3 nm bandpass) • Kinase tracer emission: 665 nm (10 nm bandpass) • Eu Ab emission: 615 nm (10 nm bandpass) • Emission ratio=665 nm (tracer)/615 nm (Eu Ab) • The higher the binding affinity of compound to ALK5 kinase is, the less the emission ratio is.

TGF-β signaling = experiment: Assay for evaluating cellular inhibition of TGF-β signaling, 4T1 (SBE-luc2P) luciferase reporter; format: cell-based; conditions: Mus musculus, 4T1, 4T1 (SBE-luc2P) transient pool, 0.2% FBS, 2 h pre-treatment, TGF-β1 2 ng/mL 24 h; read-out: IC50 4T1 Cell
In short: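 Luminescence from SMAD-binding-element luciferase was measured after 24 h of 2 ng/mL TGF-β1 at 37 °C, following 2 h compound pre-treatment. HEK293 stable reporter cells were used at 2.5×10^4/well in 0.5% FBS (~80% confluent); the 4T1 SBE-luc2P transient pool at 6×10^3/well in 0.2% FBS (~60% confluent).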

IC50 (ALK5 kinase) | IC50 (TGF-β signaling) | Compound
< 100 nM | < 100 nM | CNC(=O)c1ccc(Nc2cc(Oc3sc(N(C)C)nc3-c3cccc(C)n3)ccn2)nc1 [A-286, 6-((4-((2-(Dimethylamino)-4-(6-methylpyridin-2-yl)thiazol-5-yl)oxy)pyridin-2-yl)amino)-N-methylnicotinamide]
> 100 nM | > 100 nM | CC(C)c1nc(-c2ccccc2)c(Oc2ccnc(Nc3ccc(C(N)=O)cc3)c2)s1 [A-222, 4-((4-((2-Isopropyl-4-phenylthiazol-5-yl)oxy)pyridin-2-yl)amino)benzamide]
< 100 nM | < 100 nM | Cc1nc(-c2ccccc2)c(Oc2ccnc(Nc3cncc(C(N)=O)c3)c2)s1 [A-92, 5-((4-((2-Methyl-4-phenylthiazol-5-yl)oxy)pyridin-2-yl)amino)nicotinamide]
< 100 nM | > 100 nM | CNC(=O)c1ccc(Nc2cc(Oc3sc(N(C)C)nc3-c3ccccc3)ccn2)cc1 [A-164, 4-((4-((2-(Dimethylamino)-4-phenylthiazol-5-yl)oxy)pyridin-2-yl)amino)-N-methylbenzamide]
< 100 nM | < 100 nM | CCc1nc(-c2ccccc2)c(Oc2ccnc(Nc3ccc(C(N)=O)cn3)c2)s1 [A-190, 6-((4-((2-Ethyl-4-phenylthiazol-5-yl)oxy)pyridin-2-yl)amino)nicotinamide]
< 100 nM | < 100 nM | Cc1cccc(-c2nc(C3CC3)sc2Oc2ccnc(Nc3ccc(C(N)=O)cn3)c2)n1 [A-275]
< 100 nM | < 100 nM | Cc1nc(-c2ccccc2)c(Oc2ccnc(Nc3ccc(OCCN4CCCCC4)cc3)c2)s1 [A-105, 4-((2-Methyl-4-phenylthiazol-5-yl)oxy)-N-(4-(2-(piperidin-1-yl)ethoxy)phenyl)pyridin-2-amine]
< 100 nM | > 100 nM | CC(C)c1nc(-c2ccccc2)c(Oc2ccnc(Nc3ccc(C(C)(C)O)nc3)c2)s1 [A-224, 2-(5-((4-((2-Isopropyl-4-phenylthiazol-5-yl)oxy)pyridin-2-yl)amino)pyridin-2-yl)propan-2-ol]
< 100 nM | > 100 nM | CC(C)(O)c1cccc(Nc2cc(Oc3sc(NC4CC4)nc3-c3ccccc3)ccn2)c1 [A-44, 2-(3-((4-((2-(Cyclopropylamino)-4-phenylthiazol-5-yl)oxy)pyridin-2-yl)amino)phenyl)propan-2-ol]
< 100 nM | < 100 nM | O=C(O)c1cccc(Nc2cc(Oc3sc(C4CC4)nc3-c3ccccc3)ccn2)c1 [A-135, 3-((4-((2-Cyclopropyl-4-phenylthiazol-5-yl)oxy)pyridin-2-yl)amino)benzoic acid]
< 100 nM | > 100 nM | CS(=O)(=O)NC(=O)c1ccc(Nc2cc(Oc3sc(C4CC4)nc3-c3ccccc3)ccn2)nc1 [A-140, 6-((4-((2-Cyclopropyl-4-phenylthiazol-5-yl)oxy)pyridin-2-yl)amino)-N-(methylsulfonyl)nicotinamide]
< 100 nM | < 100 nM | O=C(O)c1ccc(Nc2cc(Oc3sc(C(F)(F)F)nc3-c3ccccc3)ccn2)cc1 [A-152, 4-((4-((4-Phenyl-2-(trifluoromethyl)thiazol-5-yl)oxy)pyridin-2-yl)amino)benzoic acid]
< 100 nM | > 100 nM | CCc1nc(-c2ccccc2)c(Oc2ccnc(Nc3ccc(S(N)(=O)=O)cc3)c2)s1 [A-184, 4-((4-((2-Ethyl-4-phenylthiazol-5-yl)oxy)pyridin-2-yl)amino)benzenesulfonamide]
< 100 nM | < 100 nM | O=C(O)c1ccc(Nc2cc(Oc3sc(C(F)(F)F)nc3-c3ccccc3)ccn2)nc1 [A-149, 6-((4-((4-Phenyl-2-(trifluoromethyl)thiazol-5-yl)oxy)pyridin-2-yl)amino)nicotinic acid]
< 100 nM | < 100 nM | O=C(NO)c1ccc(Nc2cc(Oc3sc(C4CC4)nc3-c3ccccc3)ccn2)nc1 [A-138, 6-((4-((2-Cyclopropyl-4-phenylthiazol-5-yl)oxy)pyridin-2-yl)amino)-N-hydroxynicotinamide]
< 100 nM | > 100 nM | O=C(O)c1cccc(Nc2cc(Oc3sc(C(F)(F)F)nc3-c3ccccc3)ccn2)c1 [A-151, 3-((4-((4-Phenyl-2-(trifluoromethyl)thiazol-5-yl)oxy)pyridin-2-yl)amino)benzoic acid]

IC50 (ALK5 kinase) | IC50 (TGF-β signaling) | Compound
< 100 nM | > 100 nM | Cc1nc(-c2ccccc2)c(Oc2ccnc(Nc3ccc(C(=O)O)cc3)c2)s1 [A-110, 4-((4-((2-Methyl-4-phenylthiazol-5-yl)oxy)pyridin-2-yl)amino)benzoic acid]
< 100 nM | < 100 nM | CCc1nc(-c2cccc(C)n2)c(Oc2ccnc(Nc3cccc(C(N)=O)n3)c2)s1 [A-255, 6-((4-((2-Ethyl-4-(6-methylpyridin-2-yl)thiazol-5-yl)oxy)pyridin-2-yl)amino)picolinamide]
< 100 nM | > 100 nM | CNc1nc(-c2ccccc2)c(Oc2ccnc(Nc3ccc(C(N)=O)cc3)c2)s1 [A-310, 4-((4-((2-(Methylamino)-4-phenylthiazol-5-yl)oxy)pyridin-2-yl)amino)benzamide]
< 100 nM | > 100 nM | CNc1nc(-c2ccccc2)c(Oc2ccnc(Nc3cccc(C(=O)O)c3)c2)s1 [A-57, 3-((4-((2-(Methylamino)-4-phenylthiazol-5-yl)oxy)pyridin-2-yl)amino)benzoic acid]
< 100 nM | < 100 nM | CN(C)c1nc(-c2ccccc2)c(Oc2ccnc(Nc3cccc(C(N)=O)n3)c2)s1 [A-160, 6-((4-((2-(Dimethylamino)-4-phenylthiazol-5-yl)oxy)pyridin-2-yl)amino)picolinamide]
> 100 nM | > 100 nM | Cc1nc(-c2ccccc2)c(Oc2ccnc(Nc3cccc(S(=O)(=O)C(F)(F)F)c3)c2)s1 [A-72, 4-((2-Methyl-4-phenylthiazol-5-yl)oxy)-N-(3-((trifluoromethyl)sulfonyl)phenyl)pyridin-2-amine]
< 100 nM | > 100 nM | CC(C)c1nc(-c2ccccc2)c(Oc2ccnc(Nc3cccc(C(=O)O)c3)c2)s1 [A-230, 3-((4-((2-Isopropyl-4-phenylthiazol-5-yl)oxy)pyridin-2-yl)amino)benzoic acid]
< 100 nM | < 100 nM | CCc1nc(-c2ccccc2)c(Oc2ccnc(Nc3ccc(C(=O)O)cn3)c2)s1 [A-192, 6-((4-((2-Ethyl-4-phenylthiazol-5-yl)oxy)pyridin-2-yl)amino)nicotinic acid]
< 100 nM | > 100 nM | CN(C)c1nc(-c2ccccc2)c(Oc2ccnc(Nc3cccc(C(C)(C)O)c3)c2)s1 [A-153, 2-(3-((4-((2-(Dimethylamino)-4-phenylthiazol-5-yl)oxy)pyridin-2-yl)amino)phenyl)propan-2-ol]
< 100 nM | > 100 nM | NC(=O)c1ccc(Nc2cc(Oc3sc(N)nc3-c3ccccc3)ccn2)cc1 [A-5, 4-((4-((2-Amino-4-phenylthiazol-5-yl)oxy)pyridin-2-yl)amino)benzamide]
< 100 nM | < 100 nM | NC(=O)c1cccc(Nc2cc(Oc3sc(C4CC4)nc3-c3ccccc3)ccn2)c1 [A-117, 3-((4-((2-Cyclopropyl-4-phenylthiazol-5-yl)oxy)pyridin-2-yl)amino)benzamide]
< 100 nM | > 100 nM | O=C(O)c1ccc(Nc2cc(Oc3sc(NC4CC4)nc3-c3ccccc3)ccn2)cc1 [A-49, 4-((4-((2-(Cyclopropylamino)-4-phenylthiazol-5-yl)oxy)pyridin-2-yl)amino)benzoic acid]
< 100 nM | < 100 nM | CNC(=O)c1cccc(Nc2cc(Oc3sc(N(C)C)nc3-c3ccccc3)ccn2)n1 [A-161, 6-((4-((2-(Dimethylamino)-4-phenylthiazol-5-yl)oxy)pyridin-2-yl)amino)-N-methylpicolinamide]
< 100 nM | > 100 nM | CNC(=O)c1ccc(Nc2cc(Oc3sc(C(C)C)nc3-c3ccccc3)ccn2)cc1 [A-229, 4-((4-((2-Isopropyl-4-phenylthiazol-5-yl)oxy)pyridin-2-yl)amino)-N-methylbenzamide]
< 100 nM | > 100 nM | CN(C)c1nc(-c2ccccc2)c(Oc2ccnc(Nc3ccnc(C(C)(C)O)c3)c2)s1 [A-158, 2-(4-((4-((2-(Dimethylamino)-4-phenylthiazol-5-yl)oxy)pyridin-2-yl)amino)pyridin-2-yl)propan-2-ol]
